# Measured values from US10849935B2, “Method to suppress the systemic toxicity of chemotherapeutic drugs” (United Arab Emirates University, priority 2013, dated 2020).
# “And” between values parts separate entries of the source, which are not always exact repeats. Identical values can stand only once. Like-named read-outs stand apart in the source and are kept apart here.
# Tests used:
# [1] = system: 4T1 metastatic breast cancer; assay: 4T1 metastatic breast adenocarcinoma model: growth and survival; format: in vivo, BALB/c mice
# Description: Two different syngeneic tumor models were used in this study, namely, MC38 colorectal cancer and 4T1 metastatic breast adenocarcinoma.
# For the 4T1 breast cancer cells, BALB/c mice were implanted orthotopically in the mammary fat pad with 1×10^6 cancer cells/mouse.
# For the colon and breast cancer models, mice bearing tumors were treated with (1) saline (control), (2) manuka honey (50% w/v), (3) Oxaliplatin at 6 mg/kg or (4) manuka honey (50% w/v)+Oxaliplatin (6 mg/kg). The manuka honey (50% w/v) was given intravenously (i.v.) twice per week. Oxaliplatin 6 mg/kg was administered intraperitoneally (i.p.) once per week. The total treatment period was 3 weeks.
# B16.F1 cells = assay: Annexin V-FITC / PI flow cytometry (apoptosis); format: cell-based, mouse; details: taxol 10 ng/ml, 24 hr
# Description: The results are representative of three independent experiments.
# [2] = system: caspase 3/7 in B16.F1 melanoma cells; assay: Caspase 3/7 enzymatic activity in treated cells; format: cell-based, mouse; details: paclitaxel 10 ng/ml, 24 hr
# Description: (§1) B16.F1 melanoma cells were treated with manuka honey (5% w/v), taxol (10 or 50 ng/ml) or medium as control. After 24 hr of culture, enzymatic activity of caspase 3/7 (FIG. 3A) and caspase 8 (FIG. 3B) were determined using specific kits and following manufacturer's recommendation. The data is presented as fold increase in caspase activity after normalization to the number of viable cells per culture. FIG. 3C. Western blot analysis of caspase-9 activation B16.F1 cells treated with manuka honey or taxol. […] Protein extracts were resolved on 10% SDS-PAGE and immunoblotted with caspase-9-specific ployclonal antibody capable of detecting both full length and cleaved forms of caspase-9. The cell extracts were also probed with an antibody against β-actin as a control for protein loading.
# (§2) A critical component for the initiation of the apoptosis pathway is the sequential recruitment of a number of caspases leading to the activation of the effector caspase-3. This, in turn, leads to the cleavage of a number of vital cellular substrates required for cell viability. Next explored was the mechanism of apoptosis induction in manuka honey-treated cancer cells.
# [3] = system: caspase 8 in B16.F1 melanoma cells; assay: Caspase 8 enzymatic activity in treated cells; format: cell-based, mouse; details: paclitaxel 10 ng/ml, 24 hr
# Description: as §1, §2
# [4] = system: caspase-9 in B16.F1 cells; assay: Western blot of caspase-9 activation; format: cell-based, mouse; details: paclitaxel 10 ng/ml, 24 hr
# Description: as §1
# Bcl-2 in B16.F1 cells = assay: Western blot of Bcl-2 expression; format: cell-based, mouse; details: taxol 50 ng/ml
# Description: (§3) FIGS. 4A-4C. Manuka honey induces late apoptotic events in cancer cells. FIG. 4A. B16.F1 cells were incubated for 24 hr or 72 hr in the absence or presence of Manuka honey (M; 5%) or taxol (T; 50 ng/ml). Whole cell extracts (100 μg/lane) were resolved on 10% SDS-PAGE followed by Western blotting with an antibody specific to Bcl-2. FIG. 4 B. Cells were treated for 24 hr or 72 hr with the indicated concentrations of manuka honey (0.6%-5.0%) or taxol (50 ng/ml). Whole cell extracts (100 μg/lane) were resolved on 10% SDS-PAGE followed by Western blotting with a PARP-specific antibody. The full-length (116 kD) and cleaved (89 kD) forms of PARP are indicated. The cell extracts were also probed with an antibody against β-actin as a control for loading. FIG. 4C. Following treatment for 72 hr, cells were lysed and DNA extracted by centrifugation and phenol-chloroform extraction. Extracted DNA was resolved on 1.5% agarose gel and stained with ethidium bromide to visualize the oligonucleosomal fragments. The results are representative of two independent experiments.
# Bcl-2 is a member of a large family of cell survival-regulating proteins consisting of both proand anti-apoptotic regulators. […] Therefore the level of Bcl-2 expression in B16.F1 cells following treatment with manuka honey or taxol was determined.
# PARP in B16.F1 cells = assay: Western blot of PARP cleavage; format: cell-based, mouse; details: taxol 50 ng/ml, 24 hr
# Description: as §3
# One of the target proteins for active caspase-3 is the DNA repair enzyme poly(ADP-ribose) polymerase (or PARP). […]
# [5] = system: caspase 3-positive (apoptotic) tumor cells; assay: Caspase 3 immunohistochemistry of tumor sections; format: in vivo; details: tumors of treated melanoma-bearing mice, mean±SEM
# Description: Tumor tissue sections were prepared after treatment with saline (FIG. 11A), manuka honey (FIG. 11B), paclitaxel (FIG. 11C) or manuka honey+paclitaxel (FIG. 11D) and stained using caspase 3-specific antibody. Representative images at high magnification (bar=50 μm) are shown. Arrows indicate representative, brown-staining, apoptotic cells. Necrotic regions are also indicated (n). The results are representative of two independent experiments. (FIG. 11E) Quantitative estimation of the number of caspase-3 positive cells in tumor sections of different treatment groups. The data is shown as the mean±SEM of the number of positive cells per high power field. Tumors were obtained from 2-3 mice per treatment group and multiple sections were made from each tumor tissue. The number of positive cells was determined by counting the number of cells in 20 high power fields per section.
# Tumor tissue sections were prepared from tumors obtained from animals treated with manuka honey, paclitaxel, manuka honey plus paclitaxel or saline as control. […] By counting the number of caspase 3-positive cells in a random selection of 10-20 high power fields (hpf), a quantitative estimate of apoptotic cell number could be achieved.
# [6] = system: glutathione (GSH) in liver, spleen and kidney; details: 2 injections per week for 3 weeks
# Description: Animals were treated with saline, paclitaxel, manuka honey or manuka honey plus paclitaxel. At the end of a 3-week treatment, animals were sacrificed and organs removed for toxicity determination. The levels of glutathione (GSH) in the liver (FIG. 12A) spleen (FIG. 12B) and kidney (FIG. 12C) were determined. The data represent the mean±SEM of a minimum of 3 determinations per experimental group. For all panels, asterisks denote significant differences between the indicated groups (*, p<0.05; **, p<0.01; ***, p<0.001).
# Groups of mice were injected with manuka honey, paclitaxel, manuka honey plus paclitaxel or saline for a total period of 3 weeks (2 injections per week). The animals were then sacrificed and their organs (liver, spleen, and kidney) obtained and analyzed for the levels of glutathione (GSH), a major antioxidant effector.
# B16.F1 melanoma cells = assay: Cell viability, CellTiter-Glo luminescent assay, B16.F1
# Description: Skin cancer cells (B16.F1 cell line) (FIGS. 1A-1C), colon cancer cells (CT26 cell line) (FIGS. 1D, 1E) and breast cancer cells (MCF-7 cell line) (FIGS. 1F, 1G) were plated at 5×10^3 cells per well and incubated for 24 hr (FIGS. 1A, 1D, 1F), 48 hr (FIG. 1B) or 72 hr (FIGS. 1C, 1E, 1G) in the absence or presence of the indicated concentrations of manuka honey (range 0.3% to 5.0% w/v), or taxol (10 ng/ml or 50 ng/ml final concentration). At the end of the incubation period, cell viability was determined using CellTiter-Glo luminescent assay. Results are expressed as percentage viability in treated cell cultures compared to control, untreated, cells and are representative of 3 (for B16.F1 cells) or 2 (for CT26 and MCF-7 cells) independent experiments. Asterisks denote statistically significant differences in viability of experimental groups compared to control (*, p<0.05; **, p<0.01; ***, p<0.001).
# The potential effect of manuka honey on cancer cell proliferation was investigated using three tumor cell lines differing in type and origin, the murine melanoma (B16.F1) and colon carcinoma (CT26) cells and the human breast cancer (MCF-7) cell line. Cells were incubated with different concentrations of manuka honey (range 0.3 to 2.5% w/v) for 24-72 hrs. As a positive control, cells were cultured with taxol at a final concentration of 10 or 50 ng/ml.
# B16.F1 melanoma tumor = details: for inhibition of tumor growth vs saline control: day 18 post treatment
# Description: The activity of manuka honey was evaluated in B16.F1 melanoma tumor model. Mice were divided in four groups and treated by intravenous administration (100-200 μl 2 times per week for up to 3 weeks) of manuka honey alone, at either 5%, 10% or 20% w/v, or saline as a control. Tumor volume and animal survival were followed for up to 3 weeks post treatment initiation.
# The antitumor activity of manuka honey was evaluated in the syngeneic B16.F1 melanoma tumor model. C57BL/6 mice with established tumors (mean>50 mm3) were divided into four groups and treated by intravenous administration (2 times per week for up to 3 weeks) of manuka honey alone (50% w/v), taxol alone (10 mg/kg), manuka honey (50% w/v) plus taxol (10 mg/kg) or saline as a control. Tumor volume and animal survival were followed for up to 3 weeks post treatment initiation. […] The effect of the various treatments on animal survival was also followed (FIG. 8B).
# C57BL/6 mice with established tumors (mean>50 mm^3) were divided into four groups and treated by intravenous administration (2 times per week for up to 3 weeks) of manuka honey alone (50% w/v), taxol alone (5 mg/kg), manuka honey (50% w/v) plus taxol (5 mg/kg) or saline as a control. Tumor volume and animal survival were followed for up to 3 weeks post treatment initiation.
# In a further experiment the mice were divided into four groups and treated by intravenous administration (2 times per week for up to 3 weeks) of manuka honey alone (50% w/v), taxol alone (8 mg/kg), manuka honey (50% w/v) plus taxol (8 mg/kg) or saline as a control. Tumor volume and animal survival were followed for up to 3 weeks post treatment initiation.
# One syngeneic tumor model was used in this study, namely the B16.F1 melanoma (skin cancer) model. […] The procedure for tumor implantation is briefly as follows, C57BL/6 (8-10 mice per group) were inoculated subcutaneously in the right flank with 2×10^5 B16.F1 melanoma cells and staged to day 12-14.
# Tumor growth was followed by quantitative determination of tumor volume, measured as the product of the perpendicular diameters using digital calipers, according to the formula: volume=L×W^2/2. For the B16.F1 model, once tumors were established, mice were given intravenous (i.v.) doses (100 μl per injection) of (1) saline (control), (2) 50% (w/v) manuka honey (MH) suspension in sterile saline, (3) paclitaxel (at doses of 5 or 8 mg/kg body weight) or (4) MH (50% w/v)+paclitaxel. All treatments were routinely administered twice per week, using freshly prepared reagents. Tumor growth and animal survival were followed for the subsequent 50 days.
# [7] = manuka honey 50% w/v, taxol 10 mg/kg, i.v. 2 times per week
compound,measurement,setting,value
O=C1[O][Pt]2([NH][C@@H]3CCCC[C@H]3[NH]2)[O]C1=O [Oxaliplatin],effect on cancer growth and animal survival,"[1]; Oxaliplatin 6 mg/kg, MH 50% w/v",only a marginal effect on cancer growth and animal survival
same,percentage survival,"[1]; day 50, Oxaliplatin 6 mg/kg i.p. once per week, manuka honey 50% w/v i.v. twice per week, 3 weeks",22%
"CC(=O)O[C@H]1C(=O)[C@@]2(C)[C@H]([C@H](OC(=O)c3ccccc3)[C@]3(O)C[C@H](OC(=O)[C@H](O)[C@@H](NC(=O)c4ccccc4)c4ccccc4)C(C)=C1C3(C)C)[C@]1(OC(C)=O)CO[C@@H]1C[C@@H]2O [taxol, paclitaxel]",Annexin V-positive (apoptotic) cells,B16.F1 cells,32.8%
same,"late apoptotic cells (positive for both Annexin V-FITC and PI), % of total",B16.F1 cells,3.9%
same,increase in caspase 3/7 activity,[2],2 fold
same,increase in caspase-8 activity,[3],2 fold
same,induction of caspase-9,[4],No evidence for induction of caspase-9
same,Bcl-2 expression,Bcl-2 in B16.F1 cells; 24 hr,substantially decreased
same,Bcl-2 expression,Bcl-2 in B16.F1 cells; 72 hr,undetectable
same,cleavage of PARP into the 89 kD fragment,PARP in B16.F1 cells,cleavage of PARP into the 89 kD fragment was evident
same,number of caspase 3-positive cells per high power field in tumor sections,[5],11.7±1.8 per hpf
same,"organ GSH levels (liver, spleen, kidney)",[6],marked decrease in organ GSH levels
same,"viability of B16.F1 cells, % of control","B16.F1 melanoma cells; taxol 10 ng/ml, 24 hrs",90%
same,"viability of B16.F1 cells, % of control","B16.F1 melanoma cells; taxol 10 ng/ml, 72 hrs",64%
same,"viability of B16.F1 cells, % of control","B16.F1 melanoma cells; taxol 50 ng/ml, 24 hrs",83%
same,"viability of B16.F1 cells, % of control","B16.F1 melanoma cells; taxol 50 ng/ml, 72 hrs",34%
same,inhibition of tumor growth vs saline control,B16.F1 melanoma tumor; [7],~61%
same,inhibition of tumor growth vs saline control,"B16.F1 melanoma tumor; manuka honey 50% w/v, taxol 10 mg/kg, i.v. 2 times per week, listed as paclitaxel",60% and 61%
same,survival of tumor-bearing mice,"B16.F1 melanoma tumor; day 25, paclitaxel 5 mg/kg, MH 50% w/v",no significant difference in animal survival
same,percentage survival,"B16.F1 melanoma tumor; day 25, paclitaxel 8 mg/kg, manuka honey 50% w/v",36% and 36.4%
same,overall survival at end of observation period,"B16.F1 melanoma tumor; day 25 post treatment, manuka honey 50% w/v, taxol 10 mg/kg",20%
same,day after initiation of treatment at which inhibition/delay of tumor growth was first observed,B16.F1 melanoma tumor; [7],7 days
same,effect on tumor growth (FIG. 13),"B16.F1 melanoma tumor; paclitaxel 5 mg/kg, MH 50% w/v, i.v. twice per week",no effect of tumor growth
same,"effect on tumor growth (FIGS. 17, 18)","B16.F1 melanoma tumor; paclitaxel 8 mg/kg, MH 50% w/v, i.v. twice per week",intermediate effect on reducing tumor growth
same,median survival,"B16.F1 melanoma tumor; post treatment, manuka honey 50% w/v, taxol 10 mg/kg, i.v. 2 times per week",20 days
same,tumor volume and survival vs saline (FIG. 9),"B16.F1 melanoma tumor; taxol 5 mg/kg, manuka honey 50% w/v, i.v. 2 times per week, 14 days post-treatment",ineffective at reducing tumor volume
